Values after ≈ are worked out from the molar mass of the structure shown.
Columns and labels:
[1] = tested on: Leishmania amazonensis; experiment: Effective dose was determined for intracellular amastigotes of Leishmania amazonensis LV81 at 72 hr in infected macrophages at 34C (experiment 1); format: functional; details: read-out: ED50 (the source's name)
[2] = tested on: Leishmania mexicana; experiment: Effective dose was determined for intracellular amastigotes of Leishmania mexicana LV4 at 72 hr in infected macrophages at 34 degree C (experiment 2); details: read-out: ED50 (the source's name)
[3] = tested on: Leishmania major; experiment: Effective dose was determined for intracellular amastigotes of Leishmania major JISH118 at 72 hr in infected macrophages at 34C (experiment 1); format: functional; details: read-out: ED50 (the source's name)
[4] = Aqueous Solubility at pH 3; format: physicochemical
[5] = tested on: Leishmania amazonensis; experiment: Effective dose was determined for extracellular promastigotes of Leishmania amazonensis LV81 at 72 h; format: functional; details: read-out: ED50 (the source's name)
[6] = tested on: Leishmania aethiopica; experiment: Effective dose was determined for intracellular amastigotes of Leishmania aethiopica Khartoum at 72 hr in infected macrophages at 34 degree C (experiment 2); details: read-out: ED50 (the source's name)
[7] = tested on: Leishmania donovani; experiment: Effective dose was determined for intracellular amastigotes of Leishmania donovani L82 at 72 hr in infected macrophages at 37C (experiment 1); details: read-out: ED50 (the source's name)
[8] = Aqueous Solubility at pH 5; format: physicochemical
[9] = Ionization constant (pKa) was determined; format: physicochemical
[10] = tested on: Leishmania mexicana; experiment: Effective dose was determined for intracellular amastigotes of Leishmania mexicana LV4 at 72 hr in infected macrophages at 34C (experiment 1); format: functional; details: read-out: ED50 (the source's name)
[11] = tested on: Leishmania panamensis; experiment: Effective dose was determined for intracellular amastigotes of Leishmania panamensis BOYNTON at 72 hr in infected macrophages at 34C (experiment 1); format: functional; details: read-out: ED50 (the source's name)
[12] = tested on: Leishmania major; experiment: Effective dose was determined for extracellular promastigotes of Leishmania major JISH118 at 72 h; format: functional; details: read-out: ED50 (the source's name)
[13] = tested on: Leishmania major; experiment: Effective dose was determined for intracellular amastigotes of Leishmania major JISH118 at 72 hr in infected macrophages at 34 degree C (experiment 2); details: read-out: ED50 (the source's name)
[14] = tested on: Leishmania aethiopica; experiment: Effective dose was determined for extracellular promastigotes of Leishmania aethiopica Khartoum at 72 h; format: functional; details: read-out: ED50 (the source's name)
[15] = Distribution Coefficient at pH 3; format: physicochemical; details: octanol/water
[16] = tested on: Leishmania donovani; experiment: Effective dose was determined for extracellular promastigotes of Leishmania donovani L82 at 72 h; format: functional; details: read-out: ED50 (the source's name)
[17] = tested on: Leishmania panamensis; experiment: Effective dose was determined for extracellular promastigotes of Leishmania panamensis BOYNTON at 72 h; format: functional; details: read-out: ED50 (the source's name)
[18] = tested on: Leishmania donovani; experiment: Effective dose was determined for intracellular amastigotes of Leishmania donovani L82 at 72 hr in infected macrophages at 37 degree C (experiment 2); format: functional; details: read-out: ED50 (the source's name)
[19] = tested on: Leishmania aethiopica; experiment: Effective dose was determined for intracellular amastigotes of Leishmania aethiopica Khartoum at 72 hr in infected macrophages at 34C (experiment 1); format: functional; details: read-out: ED50 (the source's name)
[20] = tested on: Leishmania mexicana; experiment: Effective dose was determined for extracellular promastigotes of Leishmania mexicana BEL21 at 72 h; format: functional; details: read-out: ED50 (the source's name)
[21] = tested on: Leishmania panamensis; experiment: Effective dose was determined for intracellular amastigotes of Leishmania panamensis BOYNTON at 72 h in infected macrophages at 34 degree C (experiment 2); details: read-out: ED50 (the source's name)
[22] = Aqueous Solubility at pH 7.4; format: physicochemical
[23] = tested on: Leishmania mexicana; experiment: Effective dose was determined for extracellular promastigotes of Leishmania mexicana LV4 at 72 h; format: functional; details: read-out: ED50 (the source's name)
[24] = Half-life for rate of hydrolysis was determined at pH 5; format: ADME; details: buffer
[25] = Half-life for rate of hydrolysis was determined at pH 3; format: ADME; details: buffer
[26] = Half-life for rate of hydrolysis was determined in human skin homogenate (pH 7.4); format: ADME, tissue-based, Zone of skin
[27] = Distribution Coefficient at pH 5; format: physicochemical; details: octanol/water
[28] = tested on: alkaline phosphatase; experiment: Half-life for rate of hydrolysis was determined in alkaline phosphatase solution (pH 7.4); format: ADME
[29] = Distribution Coefficient at pH 7.4; format: physicochemical; details: octanol/water
[30] = Half-life for rate of hydrolysis was determined at pH 7.4; format: ADME; details: buffer

| EC50 [1] [nM] | EC50 [2] [nM] | EC50 [3] [nM] | solubility [4] [µg/mL] | EC50 [5] [nM] | EC50 [6] [nM] | EC50 [7] [nM] | solubility [8] [µg/mL] | pKa [9] | EC50 [10] [nM] | EC50 [11] [nM] | EC50 [12] [nM] | EC50 [13] [nM] | EC50 [14] [nM] | logD [15] | EC50 [16] [nM] | EC50 [17] [nM] | EC50 [18] [nM] | EC50 [19] [nM] | EC50 [20] [nM] | Compound | also measured |
| --- | --- | --- | --- | --- | --- | --- | --- | --- | --- | --- | --- | --- | --- | --- | --- | --- | --- | --- | --- | --- | --- |
| 5500 | 1250 | 434 | < 0.03 | 4 | 3640 | 480 | < 0.03 | 5.7 | 1440 | 370 | 1 | 1800 | 13 | 7.02 | 6 | 42 | 430 | 633 | 2 | CC(C)(C)[C@H]1CC[C@H](CC2=C(O)C(=O)c3ccccc3C2=O)CC1 [BUPARVAQUONE] | EC50 [21]: 923 nM; solubility [22]: 0.03 µg/mL (≈ 9.19e-05 mM); EC50 [23]: 4 nM |
| 15700 | 4030 | 1370 | > 3500 | 24 | 7350 | 4120 | > 3500 | 2.68 | 7030 | 555 | 64 | 6270 | 122 | 1.87 | 9 | 124 | 4310 | 2330 | 24 | CC(C)(C)C1CCC(CC2=C(OP(=O)(O)O)C(=O)c3ccccc3C2=O)CC1 (stereo not drawn) | half-life [24]: 50 h; half-life [25]: 72 h; half-life [26]: 8.7 h; logD [27]: 1.27; EC50 [21]: 2060 nM; half-life [28]: 1.2 min; logD ([29]; read-out: logD): 0.47; half-life [30]: 17 h; solubility [22]: > 3500 µg/mL; EC50 [23]: 39 nM |
| 8810 | 2510 | 810 | > 3500 | 7 | 3990 | 1250 | > 3500 | 2.28 | 2580 | < 1120 | 12 | 1890 | 57 | 2.96 | 3 | 120 | 1220 | 1660 | 5 | CC(C)(C)C1CCC(CC2=C(OCOP(=O)(O)O)C(=O)c3ccccc3C2=O)CC1 (stereo not drawn) | half-life [24]: 8 h; half-life [25]: 97 h; half-life [26]: 0.175 h; logD [27]: 1.83; EC50 [21]: 1190 nM; half-life [28]: 3.8 min; logD [29]: 1.16; half-life [30]: 0.5 h; solubility [22]: > 3500 µg/mL; EC50 [23]: 10 nM |

— ChEMBL document CHEMBL1148294, “Synthesis, in vitro evaluation, and antileishmanial activity of water-soluble prodrugs of buparvaquone” (J Med Chem, 2004)
